Data from article PMC12281424, “A Rac-specific competitive inhibitor of guanine nucleotide binding reduces metastasis in triple-negative breast cancer” (Cell Reports Medicine, 2025).

Legend:
EphA4(h) = EphA4(h) (Homo sapiens, UniProt P54764); assay: Kinase Profiler; type: biochemical
Description: (§1) Blood cell counts, kinase profiler, safety screen, bacterial cytotoxicity, Ames, micronucleus assays were performed by the company Eurofins (France). The kinase profiler was performed by the company Eurofins (Discovery, Panlab and Cerep).

[1] = target: Transporter, Dopamine (DAT) (Homo sapiens, UniProt Q01959); assay: Safety screen; type: binding
Description: (§2) Blood cell counts, kinase profiler, safety screen, bacterial cytotoxicity, Ames, micronucleus assays were performed by the company Eurofins (France).

CLK2(h) = CLK2(h) (Homo sapiens, UniProt P49760); assay: Kinase Profiler; type: biochemical
Description: (§3) The kinase profiler was performed by the company Eurofins (Discovery, Panlab and Cerep).

CK1ε(h) = CK1ε(h) (Homo sapiens, UniProt P49674); assay: Kinase Profiler; type: biochemical
Description: as §1

PKBβ(h) = PKBβ(h) (Homo sapiens, UniProt P31751); assay: Kinase Profiler; type: biochemical
Description: as §3

SIK2(h) = SIK2(h) (Homo sapiens, UniProt Q9H0K1); assay: Kinase Profiler; type: biochemical
Description: as §3

CDK12/cyclinK(h) = CDK12/cyclinK(h) (Homo sapiens, UniProt Q9NYV4); assay: Kinase Profiler; type: biochemical
Chain of CDK12/cyclinK(h) (Q9NYV4 whole entry): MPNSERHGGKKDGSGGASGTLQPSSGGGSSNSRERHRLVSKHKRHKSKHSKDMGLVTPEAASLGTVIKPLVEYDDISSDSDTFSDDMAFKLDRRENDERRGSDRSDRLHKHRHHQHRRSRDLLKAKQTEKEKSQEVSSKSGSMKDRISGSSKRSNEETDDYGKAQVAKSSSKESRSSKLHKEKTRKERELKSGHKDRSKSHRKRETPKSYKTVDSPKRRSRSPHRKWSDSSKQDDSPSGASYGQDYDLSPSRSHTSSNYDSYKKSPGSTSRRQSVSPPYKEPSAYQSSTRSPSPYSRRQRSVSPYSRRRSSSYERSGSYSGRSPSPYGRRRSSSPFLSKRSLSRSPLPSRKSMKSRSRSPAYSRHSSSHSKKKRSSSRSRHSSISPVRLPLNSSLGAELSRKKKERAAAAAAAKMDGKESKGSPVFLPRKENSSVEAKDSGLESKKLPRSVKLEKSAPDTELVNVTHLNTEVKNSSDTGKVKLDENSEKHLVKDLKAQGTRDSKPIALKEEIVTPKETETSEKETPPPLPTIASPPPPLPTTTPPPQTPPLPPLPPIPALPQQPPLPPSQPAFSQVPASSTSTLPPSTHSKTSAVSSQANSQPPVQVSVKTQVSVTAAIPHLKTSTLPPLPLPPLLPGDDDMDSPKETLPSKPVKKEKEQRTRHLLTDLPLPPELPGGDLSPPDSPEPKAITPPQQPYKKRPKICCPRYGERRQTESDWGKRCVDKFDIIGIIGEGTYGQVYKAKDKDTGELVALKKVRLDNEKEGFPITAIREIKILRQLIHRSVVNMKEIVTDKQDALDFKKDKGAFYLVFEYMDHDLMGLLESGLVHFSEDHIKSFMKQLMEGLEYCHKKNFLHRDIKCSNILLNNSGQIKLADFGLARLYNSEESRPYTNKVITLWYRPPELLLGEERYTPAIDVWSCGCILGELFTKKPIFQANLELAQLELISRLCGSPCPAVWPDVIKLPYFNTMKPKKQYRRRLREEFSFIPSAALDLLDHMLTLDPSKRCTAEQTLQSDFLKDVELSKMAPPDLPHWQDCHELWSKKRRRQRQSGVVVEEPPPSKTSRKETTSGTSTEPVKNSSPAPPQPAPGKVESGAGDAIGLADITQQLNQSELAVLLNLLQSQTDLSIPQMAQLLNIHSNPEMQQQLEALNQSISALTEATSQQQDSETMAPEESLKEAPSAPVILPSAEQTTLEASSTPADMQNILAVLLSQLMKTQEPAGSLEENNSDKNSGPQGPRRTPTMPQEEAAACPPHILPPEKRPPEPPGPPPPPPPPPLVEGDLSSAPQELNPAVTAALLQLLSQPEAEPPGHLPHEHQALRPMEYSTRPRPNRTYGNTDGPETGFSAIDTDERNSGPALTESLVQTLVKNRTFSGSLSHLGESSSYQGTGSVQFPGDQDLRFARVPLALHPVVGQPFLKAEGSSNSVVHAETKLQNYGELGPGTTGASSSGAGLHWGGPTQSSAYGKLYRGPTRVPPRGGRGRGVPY
Chain of CDK12/cyclinK(h) (O75909 whole entry partner): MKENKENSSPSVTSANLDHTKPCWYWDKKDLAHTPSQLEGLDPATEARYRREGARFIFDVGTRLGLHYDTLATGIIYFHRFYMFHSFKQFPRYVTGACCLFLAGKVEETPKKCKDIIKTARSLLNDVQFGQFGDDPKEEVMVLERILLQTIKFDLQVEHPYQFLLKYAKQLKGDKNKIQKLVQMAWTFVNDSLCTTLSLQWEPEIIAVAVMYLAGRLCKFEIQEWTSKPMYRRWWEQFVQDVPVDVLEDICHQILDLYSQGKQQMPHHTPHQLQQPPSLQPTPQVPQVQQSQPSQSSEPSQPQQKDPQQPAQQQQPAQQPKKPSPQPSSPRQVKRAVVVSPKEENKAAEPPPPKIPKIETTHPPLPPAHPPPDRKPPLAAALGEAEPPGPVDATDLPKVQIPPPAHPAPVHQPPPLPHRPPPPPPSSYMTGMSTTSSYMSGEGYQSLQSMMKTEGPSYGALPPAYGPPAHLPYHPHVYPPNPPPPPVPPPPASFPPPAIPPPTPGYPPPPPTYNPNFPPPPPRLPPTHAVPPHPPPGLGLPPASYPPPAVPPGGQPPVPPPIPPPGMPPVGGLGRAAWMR
Description: as §1

FGFR1(V561M)(h) = FGFR1(V561M)(h) (Homo sapiens, UniProt P11362, V561M); assay: Kinase Profiler; type: biochemical
Description: as §3

CDKL1(h) = CDKL1(h) (Homo sapiens, UniProt Q00532); assay: Kinase Profiler; type: biochemical
Description: as §3

Bmx(h) = Bmx(h) (Homo sapiens, UniProt P51813); assay: Kinase Profiler; type: biochemical
Chain of Bmx(h) (P51813 whole entry): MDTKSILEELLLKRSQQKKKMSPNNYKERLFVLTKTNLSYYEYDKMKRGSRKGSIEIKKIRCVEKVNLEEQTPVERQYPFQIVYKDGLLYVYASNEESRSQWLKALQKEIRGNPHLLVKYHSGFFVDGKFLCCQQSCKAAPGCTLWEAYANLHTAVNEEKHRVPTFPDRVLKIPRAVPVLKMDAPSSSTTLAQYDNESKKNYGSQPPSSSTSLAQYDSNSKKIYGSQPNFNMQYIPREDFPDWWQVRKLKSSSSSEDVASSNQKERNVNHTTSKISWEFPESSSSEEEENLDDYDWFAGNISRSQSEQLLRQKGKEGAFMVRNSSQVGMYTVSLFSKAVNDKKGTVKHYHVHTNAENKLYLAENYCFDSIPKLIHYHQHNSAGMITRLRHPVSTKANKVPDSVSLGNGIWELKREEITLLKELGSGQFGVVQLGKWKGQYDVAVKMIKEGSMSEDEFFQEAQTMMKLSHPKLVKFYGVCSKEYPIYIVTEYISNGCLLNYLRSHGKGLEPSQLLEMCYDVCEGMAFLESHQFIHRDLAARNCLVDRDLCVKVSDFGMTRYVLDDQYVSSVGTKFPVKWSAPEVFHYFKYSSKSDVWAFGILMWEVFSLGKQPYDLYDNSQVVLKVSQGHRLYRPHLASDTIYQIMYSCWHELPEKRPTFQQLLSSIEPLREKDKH
Description: as §1

Lyn(m) = Lyn(m) (Mus musculus, UniProt P25911); assay: Kinase Profiler; type: biochemical
Chain of Lyn(m) (P25911 2-512 limits assumed): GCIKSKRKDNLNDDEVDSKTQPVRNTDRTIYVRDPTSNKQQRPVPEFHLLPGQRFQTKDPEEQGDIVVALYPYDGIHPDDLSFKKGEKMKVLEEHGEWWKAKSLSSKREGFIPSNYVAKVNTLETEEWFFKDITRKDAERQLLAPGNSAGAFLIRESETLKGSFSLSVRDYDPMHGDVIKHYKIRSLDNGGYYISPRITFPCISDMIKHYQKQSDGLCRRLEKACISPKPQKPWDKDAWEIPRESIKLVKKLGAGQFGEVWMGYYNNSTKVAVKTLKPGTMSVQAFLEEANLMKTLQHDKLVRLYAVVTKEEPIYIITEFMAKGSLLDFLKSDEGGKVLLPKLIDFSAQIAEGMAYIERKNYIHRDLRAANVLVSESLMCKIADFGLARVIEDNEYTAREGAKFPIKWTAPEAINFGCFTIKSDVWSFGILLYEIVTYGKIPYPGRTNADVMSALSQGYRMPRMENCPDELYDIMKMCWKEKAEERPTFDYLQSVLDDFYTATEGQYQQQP
Description: as §3

ALK6(h) = ALK6(h) (Homo sapiens, UniProt O00238); assay: Kinase Profiler; type: biochemical
Chain of ALK6(h) (O00238 14-502): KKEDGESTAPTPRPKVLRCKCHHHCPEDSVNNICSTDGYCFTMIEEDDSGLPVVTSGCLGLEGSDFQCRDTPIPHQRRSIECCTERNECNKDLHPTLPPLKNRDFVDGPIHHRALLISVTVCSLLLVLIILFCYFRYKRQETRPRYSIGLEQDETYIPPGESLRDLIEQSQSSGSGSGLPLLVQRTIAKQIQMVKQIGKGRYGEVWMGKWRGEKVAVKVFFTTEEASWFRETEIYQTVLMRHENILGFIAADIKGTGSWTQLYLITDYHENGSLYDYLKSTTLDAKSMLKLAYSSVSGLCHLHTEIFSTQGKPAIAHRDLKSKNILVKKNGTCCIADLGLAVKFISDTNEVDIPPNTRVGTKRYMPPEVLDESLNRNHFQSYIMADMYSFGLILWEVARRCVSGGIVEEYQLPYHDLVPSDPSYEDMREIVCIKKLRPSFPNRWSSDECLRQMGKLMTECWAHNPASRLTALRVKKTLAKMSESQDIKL
Description: as §3

Ron(h) = Ron(h) (Homo sapiens, UniProt Q04912); assay: Kinase Profiler; type: biochemical
Description: as §1

Melanocortin MC4 = Melanocortin MC4 (Homo sapiens, UniProt P32245); assay: Safety screen; type: binding
Chain of Melanocortin MC4 (P32245 whole entry): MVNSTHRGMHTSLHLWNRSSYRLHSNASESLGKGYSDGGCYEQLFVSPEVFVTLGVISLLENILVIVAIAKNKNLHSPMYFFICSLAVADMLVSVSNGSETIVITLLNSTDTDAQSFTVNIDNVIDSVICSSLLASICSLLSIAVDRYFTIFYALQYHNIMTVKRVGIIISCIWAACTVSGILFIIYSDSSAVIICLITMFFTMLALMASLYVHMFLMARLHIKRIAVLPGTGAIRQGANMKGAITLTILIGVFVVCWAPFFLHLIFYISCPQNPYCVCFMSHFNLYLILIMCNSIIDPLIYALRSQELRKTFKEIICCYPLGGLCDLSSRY
Description: as §2

DAPK2(h) = DAPK2(h) (Homo sapiens, UniProt Q9UIK4); assay: Kinase Profiler; type: biochemical
Description: as §1

WNK1(h) = WNK1(h) (Homo sapiens, UniProt Q9H4A3); assay: Kinase Profiler; type: biochemical
Description: as §3

NUAK2(h) = NUAK2(h) (Homo sapiens, UniProt Q9H093); assay: Kinase Profiler; type: biochemical
Chain of NUAK2(h) (Q9H093 whole entry): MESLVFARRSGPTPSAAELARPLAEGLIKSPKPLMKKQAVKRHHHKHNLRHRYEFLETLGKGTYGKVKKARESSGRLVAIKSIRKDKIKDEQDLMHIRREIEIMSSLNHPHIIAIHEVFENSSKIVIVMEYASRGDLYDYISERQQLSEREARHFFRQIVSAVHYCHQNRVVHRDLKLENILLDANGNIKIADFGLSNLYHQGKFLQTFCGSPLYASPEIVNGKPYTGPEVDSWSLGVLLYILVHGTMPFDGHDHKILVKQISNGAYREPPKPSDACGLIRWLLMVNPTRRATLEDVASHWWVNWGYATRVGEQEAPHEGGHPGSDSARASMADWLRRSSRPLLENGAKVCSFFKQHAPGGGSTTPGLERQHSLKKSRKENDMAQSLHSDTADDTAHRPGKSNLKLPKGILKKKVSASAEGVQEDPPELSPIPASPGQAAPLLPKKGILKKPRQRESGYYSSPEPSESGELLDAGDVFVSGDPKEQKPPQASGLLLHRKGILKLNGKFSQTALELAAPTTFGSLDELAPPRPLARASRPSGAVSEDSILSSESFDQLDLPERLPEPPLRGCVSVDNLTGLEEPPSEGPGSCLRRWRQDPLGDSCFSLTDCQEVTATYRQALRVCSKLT
Description: as §3

[2] = In vivo pharmacokinetics and tissue distribution; design: species or system mouse; conditions: 25 mg/kg i.p.
Description: A41 was administrated intraperitoneally (25 mg/kg, aqueous solution of A41 in 5% DMSO, 50% PEG) in 2 months old C57Bl/6 after 4 h of fasting. After 5, 30, 60, 120 and 360 minutes following injection, mice (n = 3 per kinetic time) were sacrificed and tissues (blood, heart, lung, liver, kidney and brain) were collected. Control mice (n = 5) were used to get blank tissues for mass spectrometry analyses. Blood was collected by cardiac puncture into tubes containing 10% EDTA. Immediately after blood collection, plasma was separated by centrifugation for 5 min at 4 °C (2,000 × g). Solid tissues were rapidly excised and snap frozen in liquid nitrogen before to be disrupted and homogenized in PBS (1/10; wt/vol) using TissueLyser II (Quiagen). A41 concentrations were determined in mouse plasma and tissues by liquid chromatography-tandem mass spectrometry (LC-MS/MS). All solvents were LC-MS grade and purchased from Biosolve (Valkenswaard, Netherlands). A41 10× standard solutions were prepared and serially diluted in acetonitrile to obtain 8 standard solutions ranging 10-20,000 nmol/L. A41 10X standard solutions (5 μL or 20 μL) were added to blank plasma (45 μL) or blank tissue homogenates (180 μL), respectively, to get final concentrations ranging 1-2,000 nmol/L. Acetonitrile (5 μL or 20 μL) was added to plasma (45 μL) or tissue samples (180 μL). Tissue homogenates (standards and samples) were then centrifugated for 5 min at 5,000 × g for 5 min at 10 °C and supernatants (100 μL) were collected. Proteins were precipitated by the addition of 150 μL or 300 μL of acetonitrile containing labeled D3-A41 as internal standard (200 nmol/L) in all plasma (50 μL) and tissue supernatants (100 μL), respectively. After centrifugation (17,000 × g, 10 min, 10 °C), supernatants were collected and dried under a gentle stream of nitrogen. Dried samples were finally reconstituted with 25% acetonitrile containing 0.1% formic acid (100 μL), and injected into the LC-MS/MS system. Analyses were performed on a Xevo® TQD mass spectrometer with an electrospray (ESI) interface and an Acquity H-Class® UPLC™ device (Waters Corporation, Milford, MA, USA). Samples (10 μL) were injected onto a BEH C18 column (1.7 μm; 2.1 × 50 mm, Waters Corporation) held at 60 °C, and compounds were separated with a linear gradient of mobile phase B (acetonitrile, 0.1% formic acid) in mobile phase A (water, 0.1% formic acid) at a flow rate of 500 μL/min. […] A41 and its internal standard d3-A41 were then detected by the mass spectrometer with the ESI interface operating in the positive ion mode (capillary voltage, 3 kV; desolvatation gas (N2) flow and temperature, 900 L/h and 450 °C; source temperature, 120 °C). The multiple reaction monitoring mode was applied for MS/MS detection at the following mass-to-charge (m/z) ratio transitions: 487.1 → 153.0 and 490.2 → 156.0 for A41 and d3-A41, respectively. Cone voltage and collision energy were set at 35 V and 20 eV, respectively. Data acquisition and processing were achieved using MassLynx® and TargetLynx® softwares (version 4.1, Waters Corporation). Chromatographic peak area ratios between A41 and its internal standard constituted the detector responses. Standard solutions were used to plot calibration curves for quantification and dilution factors related to biological matrix preparations were included in calculation. The linearity was expressed by the mean r^2 which was greater than 0.995 for all matrices (linear regression, 1/x weighting, origin excluded). AUC0-6h was calculated as follow: AUC0−6h=∫06hC0e^−Ktdt=C0/K Where K = constant of elimination, and […].
Supplementary Fig. 7: A41 pharmacokinetics. (a) Molecule distribution in plasma and indicatedorgans afterintraperitonealinjectionof A41 (25 mg/kg) in mice(N=3 mice/kinetictimepoint). (b) Pharmacokinetic parametersof A41 calculated in mice after a singleintraperitonealinjection(25mg/kg). AUC = Area Under the Concentration-time curve.

Structure (SMILES): COc1ccc(OC)c(NS(=O)(=O)c2ccc(NC(=O)CCSc3ccc(C)cc3)cc2)c1 [Compound A41]
- Activity(%) (EphA4(h)): 111%
- % inh. [1]: 30%
- Activity(%) (CLK2(h)): 97%
- Activity(%) (CK1ε(h)): 108%
- Activity(%) (PKBβ(h)): 116%
- Activity(%) (SIK2(h)): 90%
- Activity(%) (CDK12/cyclinK(h)): 100%
- Activity(%) (FGFR1(V561M)(h)): 129%
- Activity(%) (CDKL1(h)): 105%
- Activity(%) (Bmx(h)): 124%
- Activity(%) (Lyn(m)): 110%
- Activity(%) (ALK6(h)): 104%
- Activity(%) (Ron(h)): 110%
- % inh. (Melanocortin MC4): 8%
- Activity(%) (DAPK2(h)): 99%
- Activity(%) (WNK1(h)): 96%
- Activity(%) (NUAK2(h)): 110%
- C0 [2]: 4.335 µg/mL
- blood-brain barrier crossing [2]: could not cross the blood-brain barrier
- t ½ [2]: 1.6294 h
- time over which plasma concentration declined [2]: 2 to 3 h
- tissue concentration, brain [2]: extremely low concentration
- tissue concentration, kidney [2]: highest concentration
- tissue distribution, liver, heart, and lungs [2]: detected
- AUC0-6h ([2]; parameter list): 14.3 µg·h/mL
- AUC0-6h ([2]; plasma): 14.3 (µg/ mL)xh
- Cmax (peak plasma concentration) ([2]; plasma): 15.056 ± 0.5 µg/mL
